Assay results as given in article PMC8330100, “Similarities and differences in the localization, trafficking, and function of P-glycoprotein in MDR1-EGFP-transduced rat versus human brain capillary endothelial cell lines” (Fluids and Barriers of the CNS, 2021).

Key:
[1] = target: Pgp in LLC-MDR1 monolayers (Homo sapiens, UniProt P08183); settings: [3H]dLop 5 nM
[2] = target: Pgp in hCMEC/D3-MDR1-EGFP monolayers (Homo sapiens, UniProt P08183); settings: [3H]dLop 5 nM
Protocol: (§1) For these experiments, a concentration equilibrium transport assay (CETA) was used, which is more sensitive to identify Pgp substrates than conventional bidirectional (concentration gradient) transport assays. In the CETA, the drug is added to both (apical and basolateral) sides of the monolayer, so that the initial drug concentration is the same in both compartments, thereby minimizing the effect of passive diffusion across the cell monolayer.
(§2) In the present study, the CETA assay was used to determine the flux of the radiolabeled Pgp substrate [N-methyl-^3H]N-desmethyl loperamide ([^3H]dLop) across hCMEC/D3-MDR1-EGFP and RBE4-MDR1-EGFP monolayers. […] Cells were grown on permeable ThinCert® filter supports (12-well, 0.4 µm pore size, PET, Greiner Bio-One). […] Transport studies were performed in triplicates seven days after seeding. […] After 30, 60, 120, 180, and 240 min, samples of 50 µL and 70 µL were retrieved from the apical and basolateral chambers, respectively. Quantification of substrate transport was conducted by liquid scintillation counting using a 1450 Microbeta Trilux liquid scintillation counter (Perkin Elmer Wallac). […] Baseline dLop levels were corrected by the amount of dLop absorbed by the filter system as measured in blank inserts without cells. […]

[3] = target: Pgp in RBE4-MDR1-EGFP monolayers (Homo sapiens, UniProt P08183); settings: [3H]dLop 5 nM
Protocol: as §1, §2

RBE4-MDR1-EGFP cells [4] = experiment: Doxorubicin toxicity with or without Pgp inhibition by tariquidar, RBE4-MDR1-EGFP; format: cell-based, rat; settings: doxorubicin 10 µM, 30 min
Protocol: (§3) For analysis of the effects of doxorubicin on Pgp-inhibited cells, confluent monolayers of RBE4- and hCMEC/D3-MDR1-EGFP cells grown on coverslips were preincubated with or without the Pgp inhibitor tariquidar (0.5 µM, 1 h, 37 °C) in Opti-MEM before the addition of doxorubicin (10 µM, 30 min, 37 °C). After substrate incubation, cells were covered with cell culture medium for 24 h. Cells were then washed once with PBS, fixed with paraformaldehyde (4%, 30 min), and permeabilized with Triton X-100 (1%, 5 min). Finally, cells were washed and coverslips were mounted in Prolong Gold antifade (Carl Roth GmbH, Karlsruhe, Germany) containing 4’,6-diamidino-2-phenylindole (DAPI) to stain nuclei. Analysis was performed with a Zeiss Axio Observer fluorescence microscope including an ApoTome.2 and using a 40× or 63× objective.

RBE4-MDR1-EGFP cells [5] = experiment: Count of Pgp-EGFP-positive intracellular vesicles before and 24 h after doxorubicin, RBE4-MDR1-EGFP; format: cell-based, rat; settings: doxorubicin 10 µM, 30 min, 24 h after treatment
Protocol: (§4) To evaluate the number of green-fluorescent (Pgp-EGFP positive) intracellular vesicles in RBE4- and hCMEC/D3-MDR1-EGFP cells before and 24 h after treatment with doxorubicin (10 µM, 30 min, 37 °C), imaging of the cells was performed using an inverted fluorescence microscope Lumascope 620 (Etaluma Carlsbach, USA) placed in the cell culture incubator. After treatment with doxorubicin, cells were maintained in a doxorubicin-free cell culture medium until imaging. Before imaging, cellular debris was removed by washing the cells twice with sterile PBS followed by the addition of fresh doxorubicin-free culture medium.

hCMEC/D3-MDR1-EGFP cells [6] = experiment: Doxorubicin toxicity with or without Pgp inhibition by tariquidar, hCMEC/D3-MDR1-EGFP; format: cell-based, human; settings: doxorubicin 10 µM, 30 min
Protocol: as §3

hCMEC/D3-MDR1-EGFP cells [7] = experiment: Count of Pgp-EGFP-positive intracellular vesicles before and 24 h after doxorubicin, hCMEC/D3-MDR1-EGFP; format: cell-based, human; settings: doxorubicin 10 µM, 30 min, 24 h after treatment
Protocol: as §4

Pgp in rBCECs = settings: cited from earlier work

[3H]CNC(=O)C(CCN1CCC(O)(c2ccc(Cl)cc2)CC1)(c1ccccc1)c1ccccc1 [dLop, [N-methyl-^3H]N-desmethyl loperamide]
asymmetrical (basolateral to apical) transport in CETA [1]: such transport was obtained
asymmetrical (basolateral to apical) transport in CETA [2]: not observed
asymmetrical (basolateral to apical) transport in CETA [3]: not observed

COc1cccc2c1C(=O)c1c(O)c3c(c(O)c1C2=O)C[C@@](O)(C(=O)CO)C[C@@H]3O[C@H]1C[C@H](N)[C@H](O)[C@H](C)O1 [doxorubicin]
toxicity 24 h after exposure, Pgp inhibited (RBE4-MDR1-EGFP cells [4]; after tariquidar 0.5 µM): cell death
toxicity 24 h after exposure, absence of Pgp inhibition (RBE4-MDR1-EGFP cells [4]; no tariquidar): without any signs of toxicity
increase of average number of Pgp-EGFP-positive vesicles per cell (RBE4-MDR1-EGFP cells [5]): 220%
toxicity 24 h after exposure, Pgp inhibited (hCMEC/D3-MDR1-EGFP cells [6]; after tariquidar 0.5 µM): cell death
toxicity 24 h after exposure, absence of Pgp inhibition (hCMEC/D3-MDR1-EGFP cells [6]; no tariquidar): without any signs of toxicity
increase of average number of Pgp-EGFP-positive vesicles per cell (hCMEC/D3-MDR1-EGFP cells [7]): 170%

COc1ccc(C[C@H](N)C(=O)N[C@H]2[C@@H](O)[C@H](n3cnc4c(N(C)C)ncnc43)O[C@@H]2CO)cc1 [puromycin]
effect of drug exposure on Rho123 accumulation (Pgp in rBCECs): significantly reduced
